These results are taken from patent publication US20200368249A1 (priority 2017, published 2020).

The subject of one data set is Mab 390S-lux. Type of data set: cell-based, M. abscessus 390S.
The subject of data set [1] is J774A.1 macrophage cell line. Put plainly: cytotoxicity assay (resazurin). The class given is cell-based. Particulars: J774 macrophages, 24 h. How it is done: Cytotoxicity was assessed on J774A.1 (ATCC® TIB67™) macrophage cell line. Macrophages were cultured in Dulbecco's Modified Eagle Medium (DMEM, GIBCO) supplemented with 10% heat inactivated fetal calf serum (Atlanta Biologicals), 1 mM sodium pyruvate (CellGro), 2 mM L-glutamine (CORNING) and 1% PenStrep (100 U/mL Penicillin, […] Streptomycin, GIBCO). Macrophages were seeded in a 384-well black transparent bottom plate (Corning) at 2.5×10^4 cells/well. After macrophages were allowed to adhere for 4-6 h, a two-fold dilution series of the compounds (200-0.006 μM) and controls (2% Triton X and 0.5% DMSO) were added to the wells. The plate was incubated for 24 h and then 1/10th volume of resazurin dye was added. Fluorescence was measured following 4 h incubation with the dye at an excitation of 560 nm and emission at 590 nm with cell viability indicated by conversion of resazurin to fluorescent product resofurin. Viability is determined as percent growth calculated relative to the DMSO control.
In general terms: Alamar Blue is a resazurin reagent that responds to reducing activity.

A further data set concerns Mtb-lux. The class given is cell-based, M. tuberculosis CDC1551.
Data set [2] in a line: reductive demetallation by glutathione. Type of data set: physicochemical.
Another data set deals with Mtb CDC1551. Put plainly: time-kill kinetic assay, Mtb. Type of data set: cell-based, M. tuberculosis. Conditions: for mode of action against Mtb: actively replicating Mtb. How it is done:
To examine whether bacterial killing is concentration and/or time-dependent, a time-kill kinetic study was carried out with 8, 10, 11, 14, and 15. For Mtb, CDC1551 cultures diluted to an OD of 0.01 in 7H9 were added to a solid-white 384-well plate containing compounds at final concentrations of 0, 1×, 4× and 8× MIC in a total volume of 30 μl. DMSO control was also included. The plate was incubated for 6 days for Mtb. At every time point-0, 24, 48 and 72 h post-inoculation, an aliquot was taken, serially diluted and 50 μl plated onto 7H10 quad-plates supplemented with OADC. Colonies were counted after 3-4 weeks of incubation at 37° C. and CFU/ml was calculated. […] The plate was incubated for 3 days and colonies were counted after 5 days of incubation following plating. A 1-2 log10 decrease in CFU/ml is considered bactericidal. Luminescence was also read at every time point before taking an aliquot for serial dilution.

In a further data set the target is E. coli gyrase (Escherichia coli, UniProt P0AES4+P0AES6).
The target in another data set is EcTopo1 (Escherichia coli, UniProt P06612).
A further data set in a line: tolerability of mice. Conditions: 400 mg/kg, preliminary work. The class given is in vivo.
The target of another data set is MtbTopo1 (Mycobacterium tuberculosis, UniProt P9WG49). Put plainly: topoisomerase 1A relaxation assay, MtbTopo1. Type of data set: biochemical, M. tuberculosis.
The target in another data set is M. tuberculosis gyrase (Mycobacterium tuberculosis, UniProt P9WG45+P9WG47).
The next data set has as its system Mab. Particulars: even at 32 and 64-fold MIC; cited from earlier work.
The test system of another data set is Mtb. Particulars: cited from earlier work.

Where “and” joins values, the source holds several entries; their conditions need not be identical. Equal values may be shown once. Bounds are passed on as bounds.

In general, IC50 refers to the concentration needed to halve the response being measured. Higher therefore signals weaker potency in that assay.

Chain of M. tuberculosis gyrase (P9WG45 whole entry, looked up): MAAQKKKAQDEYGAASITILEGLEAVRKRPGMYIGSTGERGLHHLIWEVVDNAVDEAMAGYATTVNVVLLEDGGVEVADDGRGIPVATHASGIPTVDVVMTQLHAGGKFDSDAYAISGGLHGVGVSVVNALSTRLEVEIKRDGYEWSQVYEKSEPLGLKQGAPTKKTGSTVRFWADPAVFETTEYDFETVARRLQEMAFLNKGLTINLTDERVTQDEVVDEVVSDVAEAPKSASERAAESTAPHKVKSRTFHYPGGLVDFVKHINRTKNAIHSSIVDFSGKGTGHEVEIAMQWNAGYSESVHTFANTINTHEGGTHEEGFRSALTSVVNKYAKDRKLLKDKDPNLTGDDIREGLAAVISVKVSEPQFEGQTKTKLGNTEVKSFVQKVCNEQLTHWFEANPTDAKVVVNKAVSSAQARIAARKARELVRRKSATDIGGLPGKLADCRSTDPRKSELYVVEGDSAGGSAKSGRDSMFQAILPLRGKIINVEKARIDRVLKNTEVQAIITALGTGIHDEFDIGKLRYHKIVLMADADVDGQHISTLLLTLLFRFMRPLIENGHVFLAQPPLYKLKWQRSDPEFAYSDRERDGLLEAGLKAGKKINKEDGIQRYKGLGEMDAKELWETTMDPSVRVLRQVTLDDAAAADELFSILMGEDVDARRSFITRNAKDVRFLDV
Chain of M. tuberculosis gyrase (P9WG47 whole entry, looked up): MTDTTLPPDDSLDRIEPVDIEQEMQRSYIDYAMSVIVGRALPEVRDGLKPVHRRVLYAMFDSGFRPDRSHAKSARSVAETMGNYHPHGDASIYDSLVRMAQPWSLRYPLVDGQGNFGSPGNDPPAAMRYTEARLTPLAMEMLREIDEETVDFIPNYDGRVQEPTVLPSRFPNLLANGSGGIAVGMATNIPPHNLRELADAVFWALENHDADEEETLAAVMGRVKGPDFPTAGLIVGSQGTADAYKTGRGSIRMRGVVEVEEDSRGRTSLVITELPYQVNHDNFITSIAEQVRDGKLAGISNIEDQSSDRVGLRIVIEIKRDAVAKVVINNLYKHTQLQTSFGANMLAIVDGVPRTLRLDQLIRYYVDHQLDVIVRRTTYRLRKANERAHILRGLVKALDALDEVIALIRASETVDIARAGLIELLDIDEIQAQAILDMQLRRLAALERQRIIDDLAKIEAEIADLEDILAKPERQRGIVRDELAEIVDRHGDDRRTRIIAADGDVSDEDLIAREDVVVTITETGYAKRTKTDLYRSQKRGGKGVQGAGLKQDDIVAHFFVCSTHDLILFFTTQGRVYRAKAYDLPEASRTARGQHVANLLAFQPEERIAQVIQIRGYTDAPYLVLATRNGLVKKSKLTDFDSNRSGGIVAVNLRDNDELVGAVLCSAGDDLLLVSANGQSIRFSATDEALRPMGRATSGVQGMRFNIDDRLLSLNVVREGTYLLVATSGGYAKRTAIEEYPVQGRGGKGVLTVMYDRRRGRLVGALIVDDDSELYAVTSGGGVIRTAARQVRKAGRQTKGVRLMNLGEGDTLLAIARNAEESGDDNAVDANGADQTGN
Chain of MtbTopo1 (P9WG49 whole entry, looked up): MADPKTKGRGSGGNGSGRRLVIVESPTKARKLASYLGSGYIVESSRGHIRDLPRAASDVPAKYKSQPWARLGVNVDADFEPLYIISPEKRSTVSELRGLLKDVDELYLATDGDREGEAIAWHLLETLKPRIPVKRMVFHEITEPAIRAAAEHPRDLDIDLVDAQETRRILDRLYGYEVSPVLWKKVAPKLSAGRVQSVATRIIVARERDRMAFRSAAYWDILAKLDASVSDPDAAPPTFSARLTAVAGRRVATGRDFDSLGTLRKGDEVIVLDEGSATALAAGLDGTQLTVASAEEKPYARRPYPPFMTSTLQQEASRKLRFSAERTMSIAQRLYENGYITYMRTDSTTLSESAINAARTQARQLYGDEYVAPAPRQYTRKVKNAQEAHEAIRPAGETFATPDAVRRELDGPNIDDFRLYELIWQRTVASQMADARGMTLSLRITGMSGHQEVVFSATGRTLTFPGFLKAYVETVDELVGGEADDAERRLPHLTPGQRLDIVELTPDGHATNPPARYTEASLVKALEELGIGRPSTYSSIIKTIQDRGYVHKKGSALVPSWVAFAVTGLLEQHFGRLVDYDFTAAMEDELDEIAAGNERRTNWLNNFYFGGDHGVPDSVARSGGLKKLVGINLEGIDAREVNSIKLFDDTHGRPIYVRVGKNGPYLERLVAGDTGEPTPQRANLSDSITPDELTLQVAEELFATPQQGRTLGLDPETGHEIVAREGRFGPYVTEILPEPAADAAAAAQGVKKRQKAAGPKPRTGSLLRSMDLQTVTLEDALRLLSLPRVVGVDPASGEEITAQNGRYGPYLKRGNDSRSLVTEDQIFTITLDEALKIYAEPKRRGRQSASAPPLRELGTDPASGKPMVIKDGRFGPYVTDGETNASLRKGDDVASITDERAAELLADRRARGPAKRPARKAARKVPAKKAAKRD
Chain of E. coli gyrase (P0AES4 whole entry, one chain of several): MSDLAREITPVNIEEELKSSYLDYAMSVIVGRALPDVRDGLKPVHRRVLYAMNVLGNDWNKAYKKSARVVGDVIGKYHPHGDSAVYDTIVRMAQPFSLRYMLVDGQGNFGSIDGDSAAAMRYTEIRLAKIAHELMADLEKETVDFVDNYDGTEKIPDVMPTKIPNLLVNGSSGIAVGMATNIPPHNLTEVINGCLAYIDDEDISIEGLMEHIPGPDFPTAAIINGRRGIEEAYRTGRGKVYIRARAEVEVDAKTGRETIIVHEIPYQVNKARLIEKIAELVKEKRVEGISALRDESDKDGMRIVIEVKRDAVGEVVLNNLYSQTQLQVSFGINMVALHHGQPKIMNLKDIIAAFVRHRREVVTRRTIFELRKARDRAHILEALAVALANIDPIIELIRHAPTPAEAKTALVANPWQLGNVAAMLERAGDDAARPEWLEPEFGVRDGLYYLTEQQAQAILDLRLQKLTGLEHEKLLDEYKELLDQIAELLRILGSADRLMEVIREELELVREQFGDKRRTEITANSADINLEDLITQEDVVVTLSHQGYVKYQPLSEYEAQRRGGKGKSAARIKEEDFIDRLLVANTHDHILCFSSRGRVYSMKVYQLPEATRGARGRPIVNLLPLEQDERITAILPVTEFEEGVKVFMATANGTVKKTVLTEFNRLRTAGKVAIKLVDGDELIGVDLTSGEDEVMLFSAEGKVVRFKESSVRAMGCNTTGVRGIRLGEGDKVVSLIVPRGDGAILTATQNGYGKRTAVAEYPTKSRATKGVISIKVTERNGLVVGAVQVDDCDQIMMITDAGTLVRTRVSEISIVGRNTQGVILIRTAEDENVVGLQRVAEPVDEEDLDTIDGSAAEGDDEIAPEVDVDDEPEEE
Chain of EcTopo1 (P06612 whole entry): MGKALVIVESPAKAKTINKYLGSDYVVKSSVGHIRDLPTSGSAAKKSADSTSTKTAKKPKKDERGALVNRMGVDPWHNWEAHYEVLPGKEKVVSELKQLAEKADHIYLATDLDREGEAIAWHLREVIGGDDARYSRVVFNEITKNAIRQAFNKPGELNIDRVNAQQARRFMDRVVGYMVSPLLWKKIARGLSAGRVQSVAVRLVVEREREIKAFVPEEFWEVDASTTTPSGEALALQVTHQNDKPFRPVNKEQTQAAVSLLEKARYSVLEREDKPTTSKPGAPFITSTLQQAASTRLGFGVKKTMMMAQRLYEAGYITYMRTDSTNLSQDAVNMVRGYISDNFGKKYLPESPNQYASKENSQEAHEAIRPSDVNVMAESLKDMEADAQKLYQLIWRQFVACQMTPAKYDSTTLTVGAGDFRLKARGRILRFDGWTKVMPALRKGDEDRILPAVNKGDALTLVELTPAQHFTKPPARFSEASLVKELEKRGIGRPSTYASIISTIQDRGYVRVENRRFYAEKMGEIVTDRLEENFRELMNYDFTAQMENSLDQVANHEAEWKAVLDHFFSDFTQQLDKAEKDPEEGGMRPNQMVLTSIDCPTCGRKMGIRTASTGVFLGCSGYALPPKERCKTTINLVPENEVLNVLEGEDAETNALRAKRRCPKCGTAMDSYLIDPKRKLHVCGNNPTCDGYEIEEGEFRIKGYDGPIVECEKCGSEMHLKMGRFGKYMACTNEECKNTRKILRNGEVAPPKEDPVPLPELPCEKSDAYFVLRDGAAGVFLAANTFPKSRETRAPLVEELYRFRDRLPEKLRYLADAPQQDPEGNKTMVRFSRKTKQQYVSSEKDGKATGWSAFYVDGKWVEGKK
Experimental for E. coli gyrase: (§1) In FIG. 8A-FIG. 8D, the IC50 was determined as the drug concentration which inhibited 50% of the supercoiling activity.
Text for EcTopo1: (§2) In FIGS. 7A and 7B, R indicates relaxed circular DNA; PR indicates partially relaxed DNA; and SC indicates supercoiled DNA.
Experimental for M. tuberculosis gyrase: as §1
Text for MtbTopo1: as §2

For the molecule `C1=NCCCN=Cc2ccc3[n]2[Au+][n]2c1ccc2-c1nc2ccccc2nc1-3.F[P-](F)(F)(F)(F)F` [Compound 8], in the data set on Mab 390S-lux, the “MIC Mab” value was 849.41 µM. Further, inhibition in data set [1] was half-maximal at 48.5 µM (IC50). In addition, the “MIC Mtb” value with Mtb-lux turned out to be 2.72 µM.
For the molecule `C1=NCCCCN=Cc2ccc3[n]2[Au+][n]2c1ccc2-c1nc2ccccc2nc1-3.F[P-](F)(F)(F)(F)F` [Compound 10], the “loss of the Au(III) ion” value in data set [2] is listed as “cannot be lost since it is very tightly bound”. The “MIC Mab” value with Mab 390S-lux is 5.4 µM and 5.44 µM. In addition, the “mode of action against Mtb” value in the data set on Mtb CDC1551 is “almost completely bacteriostatic”. Further, the “decrease relative to vehicle control” value in the data set with Mtb CDC1551 (at 64-fold MIC) is on record as 1 log. In addition, the “activity against topoisomerase II (E. coli gyrase supercoiling)” value at E. coli gyrase is given as “neither had significant activity”. The molecule further registered an IC50 in data set [1] of 85.8 µM. In addition, the “inhibition of topoisomerase I (EcTopo1 relaxation)” value against EcTopo1 is given as “able to inhibit topoisomerase I”. In the data set “tolerability of mice”, the tolerability result is reported as “tolerated”. For the same molecule, the “inhibition of topoisomerase I (MtbTopo1 relaxation)” value against MtbTopo1 was “able to inhibit topoisomerase I”. Also, the “MIC Mtb” value against Mtb-lux came out at 0.12 µM. Besides, the “activity against topoisomerase II (M. tuberculosis gyrase supercoiling)” value at M. tuberculosis gyrase was “neither had significant activity”.
For `ClC1CN=Cc2ccc3[n]2[Au+][n]2c(ccc2-c2nc4ccccc4nc2-3)C=NC1.F[P-](F)(F)(F)(F)F` (centres unmarked) [Compound 11], the “MIC Mab” value in the data set on Mab 390S-lux worked out at 91.72 µM. In the data set with Mtb CDC1551 (24 h), the “decrease in CFU/mL, early time-point” value is listed as greater than 1 log. Besides, in the data set on Mtb CDC1551 (144 h, at 8, 4 and 2-fold MIC), the “mode of action, latest time-point” value is recorded as “bacteriostatic”. In addition, the 50% inhibitory concentration (IC50) in data set [1] is 108 µM. For the same molecule, the “MIC Mtb” value against Mtb-lux came out at 4.06 µM.
Regarding `CCOC1CN=Cc2ccc[n]2[Au+][n]2cccc2C=NC1.F[P-](F)(F)(F)(F)F` (centres unmarked) [Compound 15], the “MIC Mab” value in the data set with Mab 390S-lux worked out at 13.05 µM. Besides, the “mode of action against Mtb” value in the data set on Mtb CDC1551 is “rapid and potent bactericidal activity”. The same molecule had a half-maximal inhibitory concentration (IC50) in [1] of 48.9 µM. In addition, the “MIC Mtb” value against Mtb-lux worked out at 4.61 µM.
Consider `NCC[C@H](O)C(=O)N[C@@H]1C[C@H](N)[C@@H](O[C@H]2O[C@H](CN)[C@@H](O)[C@H](O)[C@H]2O)[C@H](O)[C@H]1O[C@H]1O[C@H](CO)[C@@H](O)[C@H](N)[C@H]1O` [amikacin], for which, in the data set on Mab, the “bactericidal activity against Mab in vitro” value is reported as “poor bactericidal activity”.
As for `CC(=O)OC[C@H]1O[C@@H]([S-])[C@H](OC(C)=O)[C@@H](OC(C)=O)[C@@H]1OC(C)=O.CCP(CC)CC.[Au+]` [auranofin], the “activity against Mtb” value in the data set on Mtb is on record as “bactericidal”.
With `CC[C@H]1OC(=O)[C@H](C)[C@@H](O[C@H]2C[C@@](C)(OC)[C@@H](O)[C@H](C)O2)[C@H](C)[C@@H](O[C@@H]2O[C@H](C)C[C@H](N(C)C)[C@H]2O)[C@](C)(OC)C[C@@H](C)C(=O)[C@H](C)[C@@H](O)[C@]1(C)O` [clarithromycin], the “bactericidal activity against Mab in vitro” value in the data set with Mab is “poor bactericidal activity”.
